Counter-ions that a name gives are not always drawn.
Experiments:
[1] = system: U87 cells stably expressing CD4 and the chemokine receptor CCR5; assay: HIV-1 entry assay (luciferase reporter virions); assay type: cell-based; settings: Human immunodeficiency virus 1, U87/CD4/CCR5, read-out: Viral Entry IC50
Method: Several types of assays can be used to determine the CCR5 inhibitory and antagonistic activity of the compounds of the invention. Some are, for example, the CCR5 Membrane Binding Assay, the HIV-1 Entry Assay, HIV-1 Replication Assay, the Calcium Flux Assay, the GTPγS Binding Assay (secondary membrane binding assay) and the Chemotaxis Assay. Compounds of this invention were evaluated for their ability to inhibit CCR5 receptor mediated viral entry using an HIV-1 entry assay, which is described below:
Replication defective HIV-1 reporter virions are generated by cotransfection of a plasmid encoding the NL4-3 strain of HIV-1 (which has been modified by mutation of the envelope gene and introduction of a luciferase reporter plasmid) along with a plasmid encoding one of several HIV-1 envelope genes as described by Connor et al, Virology, 206 (1995), 935-944. Following transfection of the two plasmids by calcium phosphate precipitation, the viral supernatants are harvested on day 3 and a functional viral titer determined. These stocks are then used to infect U87 cells stably expressing CD4 and the chemokine receptor CCR5 which have been preincubated with or without test compound. Infections are carried out for 2 hours at 37° C., the cells washed and media replaced with fresh media containing compound. The cells are incubated for 3 days, lysed and luciferase activity determined. […]

Row | melting point | SMILES | IC50 [1]
1 | 165 to 169 °C | CCON=C(c1ccc(OC(F)(F)F)cc1)N1CCN(C2(C)CCN(C(=O)c3c(C)ncnc3C)CC2)C[C@@H]1C (as salt: HCl) | 
2 |  | CCON=C(c1ccc(C(F)(F)F)cc1)N1CCN(C2(C)CCN(C(=O)c3c(C)ncnc3C)CC2)C[C@@H]1C [Ih, 1-[(4,6-dimethyl-5-pyrimidinyl)carbonyl]-4-[4-[(ethoxyimino)[4-(trifluoromethyl)phenyl]methyl]-3(s)-methyl-1-piperazinyl]-4-methylpiperidine] | 16.5 nM

— patent US6689783B2, “Aryl oxime-piperazines useful as CCR5 antagonists” (priority 2001, dated 2004)
